Test results reported in ChEMBL document CHEMBL5360529, “Pyrimidine derivatives with antitubercular activity” (Eur J Med Chem, 2023).
In brackets after ≈: the same amount, converted by molar mass.

What was measured:
[1] = system: Mycobacterium tuberculosis; assay: Antimycobacterial activity against Mycobacterium tuberculosis H37RV assessed as bacterial growth inhibition; type: functional
[2] = system: Mycobacterium tuberculosis; assay: Antimycobacterial activity against Mycobacterium tuberculosis H37Rv infected in po dosed C57BL/6 mouse assessed as bacterial growth inhibition measured after 8 days; type: functional; conditions: 192 h, time 8 day
Thymidylate kinase [3] = molecular target: T1, Thymidylate kinase (Homo sapiens, UniProt P23919); assay: Inhibition of human TMPK assessed as inhibition constant
T1 sequence (P23919 whole entry): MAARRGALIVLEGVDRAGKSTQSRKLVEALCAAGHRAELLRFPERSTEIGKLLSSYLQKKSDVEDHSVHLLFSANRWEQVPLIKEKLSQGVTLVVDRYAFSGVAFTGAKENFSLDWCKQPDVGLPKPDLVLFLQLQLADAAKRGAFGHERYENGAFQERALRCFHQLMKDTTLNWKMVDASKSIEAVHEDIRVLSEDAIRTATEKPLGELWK

Thymidylate kinase [4] = molecular target: T2, Thymidylate kinase (Mycobacterium tuberculosis, UniProt P9WKE1); assay: Inhibition of Mycobacterium tuberculosis TMPK assessed as inhibition constant
T2 sequence (P9WKE1 whole entry): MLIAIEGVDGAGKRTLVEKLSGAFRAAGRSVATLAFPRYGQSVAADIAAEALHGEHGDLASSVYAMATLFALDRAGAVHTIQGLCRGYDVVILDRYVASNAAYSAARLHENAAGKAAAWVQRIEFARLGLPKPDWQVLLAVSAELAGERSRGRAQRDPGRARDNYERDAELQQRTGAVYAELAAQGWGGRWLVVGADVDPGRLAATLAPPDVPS

[5] = Selectivity index, ratio of Ki for human TMPK to Ki for Mycobacterium tuberculosis TMPK
HepG2 = assay: Anticancer activity against human HepG2 cells assessed as cell growth inhibition; type: functional, cell-based
[6] = Selectivity index, ratio of IC50 for anticancer activity against human HepG2 cells to MIC for antimycobacterial activity against Mycobacterium tuberculosis; type: toxicity, cell-based; conditions: read-out: Selectivity Index
[7] = system: Mycobacterium tuberculosis; assay: Antimycobacterial activity against Mycobacterium tuberculosis infected in Macrophage cell (unknown origin) assessed as bacterial growth inhibition; type: functional
[8] = system: Mycobacterium tuberculosis; assay: Antimycobacterial activity against Mycobacterium tuberculosis H37Rv assessed as bacterial growth inhibition by microplate Alamar blue assay; type: functional
Adenosine kinase [9] = molecular target: Adenosine kinase (Mycobacterium tuberculosis (strain CDC 1551 / Oshkosh), UniProt P9WID4); assay: Inhibition of Mycobacterium tuberculosis ADK
Sequence of Adenosine kinase (Mycobacterium tuberculosis (strain CDC 1551 / Oshkosh), UniProt P9WID4) (P9WID4 whole entry): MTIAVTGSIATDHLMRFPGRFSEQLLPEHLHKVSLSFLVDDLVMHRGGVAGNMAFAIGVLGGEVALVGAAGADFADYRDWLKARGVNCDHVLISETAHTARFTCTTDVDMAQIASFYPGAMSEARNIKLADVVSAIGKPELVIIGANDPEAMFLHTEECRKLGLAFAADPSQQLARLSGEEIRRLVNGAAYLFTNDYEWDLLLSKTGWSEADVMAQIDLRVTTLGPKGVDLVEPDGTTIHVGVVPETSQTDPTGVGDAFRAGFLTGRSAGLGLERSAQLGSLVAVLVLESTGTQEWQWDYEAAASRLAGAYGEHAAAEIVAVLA

[10] = system: Mycobacterium tuberculosis; assay: Antimycobacterial activity against Mycobacterium tuberculosis My331/88 assessed as bacterial growth inhibition measured after 14 to 21 day; type: functional; conditions: time 14-21 day
[11] = system: Mycobacterium tuberculosis; assay: Antimycobacterial activity against Mycobacterium tuberculosis assessed as bacterial growth inhibition measured after 14 to 21 day; type: functional; conditions: time 14-21 day
Adenosine kinase [12] = molecular target: Adenosine kinase (Homo sapiens, UniProt P55263); assay: Inhibition of human ADK
Sequence of Adenosine kinase (Homo sapiens, UniProt P55263) (P55263 whole entry): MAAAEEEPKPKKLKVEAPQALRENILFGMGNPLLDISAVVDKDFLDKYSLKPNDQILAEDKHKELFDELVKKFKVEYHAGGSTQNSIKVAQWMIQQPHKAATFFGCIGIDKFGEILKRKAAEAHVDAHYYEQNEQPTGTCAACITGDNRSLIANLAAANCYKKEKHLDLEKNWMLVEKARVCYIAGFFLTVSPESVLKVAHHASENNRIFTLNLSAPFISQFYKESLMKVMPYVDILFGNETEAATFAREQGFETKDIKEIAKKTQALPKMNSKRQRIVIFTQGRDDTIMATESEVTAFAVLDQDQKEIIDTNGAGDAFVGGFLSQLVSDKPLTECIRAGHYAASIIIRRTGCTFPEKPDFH

NCC[C@H](O)C(=O)N[C@@H]1C[C@H](N)[C@@H](O[C@H]2O[C@H](CN)[C@@H](O)[C@H](O)[C@H]2O)[C@H](O)[C@H]1O[C@H]1O[C@H](CO)[C@@H](O)[C@H](N)[C@H]1O [AMIKACIN]
MIC [1]: 2 µg/mL

COc1c(N2C[C@@H]3CCCN[C@@H]3C2)c(F)cc2c(=O)c(C(=O)O)cn(C3CC3)c12 [MOXIFLOXACIN]
ED99 [2]: 27.7 mg/kg

Cc1cn([C@H]2C[C@H](O)[C@@H](CNC(=S)Nc3ccc(Cl)c(C(F)(F)F)c3)O2)c(=O)[nH]c1=O
Ki (Thymidylate kinase [3]): 362 µM | Ki (Thymidylate kinase [4]): 0.6 µM | Ratio Ki [5]: 600

Cc1nn2c(=O)cc(-c3ccc(F)c(F)c3)[nH]c2c1-c1ccccc1
IC50 (HepG2): > 100 µM | selectivity ratio [6]: > 36 | MIC [1]: 1.56 µM | MIC [7]: 2.73 µM (≈ 0.921 µg/mL)

COc1ccc(Cn2cnc3c(-c4ccco4)nc(Cl)nc32)cc1
MIC [1]: 0.78 µg/mL

O=C(C1CCN(c2cc(N3CCOCC3)ncn2)CC1)N1CCC(Oc2ccc(F)cc2)CC1
ED99 [2]: 30 mg/kg

CC(=O)NC[C@H]1CN(c2ccc(N3CCOCC3)c(F)c2)C(=O)O1 [LINEZOLID]
ED99 [2]: 28 mg/kg

CCCSc1nc(Cl)c(C#N)c(-c2ccco2)n1
MIC [8]: 0.78 µg/mL

Cc1nn2c(=O)cc(-c3ccccc3)[nH]c2c1-c1ccccc1
MIC [1]: 3.12 µM

O=c1nc(N2CCN(CC3CCCCC3)CC2)sc2c([N+](=O)[O-])cc(C(F)(F)F)cc12 [MACOZINONE]
MIC [1]: ≤ 0.00019 µg/mL

OC[C@H]1O[C@@H](n2ccc3c(-c4cccc5c4oc4ccccc45)nc(F)nc32)[C@H](O)[C@@H]1O
IC50 (Adenosine kinase [9]): 180 nM | MIC [10]: 32 µM (≈ 13.9 µg/mL) | MIC [11]: 32 µM (≈ 13.9 µg/mL) | IC50 (Adenosine kinase [12]): > 20 µM

CCCSc1nc(Cl)c(C#N)c(-c2cccs2)n1
MIC [8]: 0.78 µg/mL

COc1ccc(-c2cc(=O)n3nc(C)c(-c4ccc(Cl)cc4)c3[nH]2)cc1
MIC [1]: 3.12 µM

COc1ccc(CNc2nc(F)nc(-c3ccco3)c2NC=O)cc1
IC90 [1]: < 0.2 µg/mL

N#Cc1c(Cl)nc(SCc2ccc(Cl)cc2)nc1-c1cccs1
MIC [8]: 0.78 µg/mL

Cc1cn([C@H]2C[C@H](NC(=O)N[C@H]3C[C@H](c4[nH]c(=O)[nH]c(=O)c4C)O[C@@H]3O)[C@@H](CO)O2)c(=O)[nH]c1=O
Ki (Thymidylate kinase [4]): 37 µM

Cc1cn([C@@H]2O[C@H](CO)[C@H]3CNC(=S)O[C@H]32)c(=O)[nH]c1=O
Ratio Ki [5]: 200

COc1ccc(CNc2nc(C)nc(-c3ccco3)c2NC=O)cc1
IC90 [1]: 0.33 µg/mL (≈ 0.975 µM)

O=c1cc(-c2ccc(Cl)cc2)[nH]c2c(-c3ccc(Cl)cc3)cnn12
MIC [1]: 12.5 µM

OC[C@H]1O[C@@H](n2ccc3c(-c4cc5ccccc5o4)nc(F)nc32)[C@H](O)[C@@H]1O
IC50 (Adenosine kinase [9]): 1200 nM | MIC [10]: 62.5 µM (≈ 24.1 µg/mL) | IC50 (Adenosine kinase [12]): > 10 µM

CCCSc1nc(Cl)c(C#N)c(-c2cccc(F)c2)n1
MIC [8]: 0.78 µg/mL

COc1ccc(CNc2nc(Cl)nc(-c3ccco3)c2NC=O)cc1
IC90 [1]: 0.29 µg/mL (≈ 0.808 µM)

O=C(C1CCN(c2cc(N3CCOCC3)ncn2)CC1)N1CCC(Cc2ccc(F)cc2)CC1
ED99 [2]: 29 mg/kg

O=c1cc(CC2CCCCC2)[nH]c2c(-c3ccc(Cl)cc3)cnn12
MIC [1]: 0.78 µM
